Experimental data as given in patent publication US20030158204A1, “Diamino phenothiazine derivatives and composition comprising same” (priority 2000, published 2003).

What was measured:
[1] = Half life of the compound; details: qualitative
[2] = Hydrophilicity / water solubility; type: physicochemical; details: qualitative
Procedure: These derivatives more or less have the properties of methylene blue, are hydrosoluble, active by the enteral and parenteral route (IV, SC, etc.) and they never give rise to acute or chronic toxicity nor undesirable effects, at doses comprised between 0.05 mg/Kg and 40 mg/Kg.

[3] = used externally and internally; cited from earlier work
[4] = test system: pernicious attacks resistant to quinine (malaria); details: IV route; cited from earlier work

half life [1]	hydrophilicity [2]	SMILES	antiseptic activity [3]	activity on pernicious attacks resistant to quinine [4]
short half life	very hydrophilic	CNc1ccc2nc3c(O)cc(N(C)C)cc3[s+]c2c1O [Example 4]		
	decreased hydrophilicity	CNc1ccc2nc3c(C)cc(N(C)C)cc3[s+]c2c1C [Example 1, 4-5 dimethyl-7-(dimethylamino)-3(methylimino)-3H phenothiazine]		
		CN(C)c1ccc2nc3ccc(=[N+](C)C)cc-3sc2c1 [Methylene blue, methylene blue]	moderate	active

SMILES	half life [1]	hydrophilicity [2]	antiseptic activity [3]	activity on pernicious attacks resistant to quinine [4]
CNc1ccc2nc3c(Cl)cc(N(C)C)cc3[s+]c2c1C [Example 2]	considerably increases the half life	more hydrophilic than the reference daughter molecule		
